Laboratory results reported in ChEMBL document CHEMBL1201862, “PubChem BioAssay data set” (2004).
The source made the active and inactive calls.

What was measured:
[1] = molecular target: Voltage-gated inwardly rectifying potassium channel KCNH2 (Homo sapiens, UniProt Q12809); conditions: Potency;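 further: confirmatory quantitative high-throughput screen measuring inhibition of hERG channel activity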
H4 = test: Luminescence Cell-Based Dose Response HTS to Identify Activators of 5'UTR Stem-Loop Driven Prion Protein mRNA Translation in H4 Neuroglioblastoma Cells. [Related pubchem assays: 1829 (Project Summary), 1814 (Primary HTS)]; format: functional; conditions: Homo sapiens
HeLa = test: HeLa cell cytotoxicity, dose response, cytotoxicity control for MITF activator project, CellTiter-Glo luminescence, cherry-pick samples (AID 540259); format: functional, cell-based; conditions: Homo sapiens
[2] = Luminescence Cell-Based Dose Response HTS to Identify Activators of Luciferase Translation or Activity in H4 […] Cells. [Related pubchem assays: 1829 (Project Summary), 1814 (Primary HTS)]; format: functional
Caspase-3 [3] = molecular target: T1, Caspase-3 (Homo sapiens, UniProt P42574); test: caspase-3 inhibitors as off-family protease, SAR follow-up, selectivity assay for SENP protease inhibitor project, biochemical, luminescence, set 2 (AID 588599); format: functional
T1 sequence (P42574 whole entry): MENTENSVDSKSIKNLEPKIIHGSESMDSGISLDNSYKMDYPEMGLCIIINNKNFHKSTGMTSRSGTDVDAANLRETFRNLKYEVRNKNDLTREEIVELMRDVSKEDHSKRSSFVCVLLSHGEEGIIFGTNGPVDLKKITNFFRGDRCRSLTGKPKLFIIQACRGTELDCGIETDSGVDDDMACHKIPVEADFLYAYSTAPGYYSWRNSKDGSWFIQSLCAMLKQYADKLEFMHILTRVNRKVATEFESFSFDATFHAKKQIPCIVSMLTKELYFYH

[4] = molecular target: T2, Sentrin-specific protease 6 (Homo sapiens, UniProt Q9GZR1); test: SENP6 protease inhibitors, SAR follow-up, biochemical, luminescence, set 2 (AID 588598); format: functional
T2 sequence (Q9GZR1 whole entry): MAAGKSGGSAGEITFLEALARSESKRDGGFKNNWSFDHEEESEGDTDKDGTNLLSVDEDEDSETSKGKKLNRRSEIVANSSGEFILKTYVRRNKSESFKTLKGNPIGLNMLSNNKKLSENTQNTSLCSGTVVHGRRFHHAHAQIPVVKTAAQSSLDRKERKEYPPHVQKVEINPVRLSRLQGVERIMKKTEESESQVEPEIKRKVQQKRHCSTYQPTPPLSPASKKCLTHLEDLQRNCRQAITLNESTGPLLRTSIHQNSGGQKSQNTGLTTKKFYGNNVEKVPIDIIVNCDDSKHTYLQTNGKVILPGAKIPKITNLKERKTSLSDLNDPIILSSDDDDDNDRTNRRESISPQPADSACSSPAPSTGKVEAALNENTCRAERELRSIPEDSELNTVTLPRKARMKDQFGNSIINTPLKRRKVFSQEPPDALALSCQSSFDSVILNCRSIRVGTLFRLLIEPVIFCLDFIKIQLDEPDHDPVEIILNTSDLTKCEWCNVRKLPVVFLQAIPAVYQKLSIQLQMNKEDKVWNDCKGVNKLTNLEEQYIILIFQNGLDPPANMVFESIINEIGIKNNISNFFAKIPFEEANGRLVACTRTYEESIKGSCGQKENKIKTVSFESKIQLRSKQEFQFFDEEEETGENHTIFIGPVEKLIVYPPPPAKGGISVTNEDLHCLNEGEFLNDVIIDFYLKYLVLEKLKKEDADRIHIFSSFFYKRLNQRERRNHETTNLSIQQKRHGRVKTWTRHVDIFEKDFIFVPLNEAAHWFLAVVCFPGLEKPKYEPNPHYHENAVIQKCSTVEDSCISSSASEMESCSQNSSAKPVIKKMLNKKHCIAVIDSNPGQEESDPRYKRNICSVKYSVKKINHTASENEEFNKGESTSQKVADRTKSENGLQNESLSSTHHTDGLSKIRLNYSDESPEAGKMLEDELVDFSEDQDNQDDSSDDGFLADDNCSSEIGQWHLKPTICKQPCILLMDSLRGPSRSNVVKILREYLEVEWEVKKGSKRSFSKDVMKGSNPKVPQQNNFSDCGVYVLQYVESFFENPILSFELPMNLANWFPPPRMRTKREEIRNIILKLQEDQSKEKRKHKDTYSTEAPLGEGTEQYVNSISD

[5] = molecular target: T3, Sentrin-specific protease 7 (Homo sapiens, UniProt Q9BQF6); test: SENP7 protease inhibitors, SAR follow-up, biochemical, luminescence, set 2 (AID 588600); format: functional
T3 sequence (Q9BQF6 whole entry): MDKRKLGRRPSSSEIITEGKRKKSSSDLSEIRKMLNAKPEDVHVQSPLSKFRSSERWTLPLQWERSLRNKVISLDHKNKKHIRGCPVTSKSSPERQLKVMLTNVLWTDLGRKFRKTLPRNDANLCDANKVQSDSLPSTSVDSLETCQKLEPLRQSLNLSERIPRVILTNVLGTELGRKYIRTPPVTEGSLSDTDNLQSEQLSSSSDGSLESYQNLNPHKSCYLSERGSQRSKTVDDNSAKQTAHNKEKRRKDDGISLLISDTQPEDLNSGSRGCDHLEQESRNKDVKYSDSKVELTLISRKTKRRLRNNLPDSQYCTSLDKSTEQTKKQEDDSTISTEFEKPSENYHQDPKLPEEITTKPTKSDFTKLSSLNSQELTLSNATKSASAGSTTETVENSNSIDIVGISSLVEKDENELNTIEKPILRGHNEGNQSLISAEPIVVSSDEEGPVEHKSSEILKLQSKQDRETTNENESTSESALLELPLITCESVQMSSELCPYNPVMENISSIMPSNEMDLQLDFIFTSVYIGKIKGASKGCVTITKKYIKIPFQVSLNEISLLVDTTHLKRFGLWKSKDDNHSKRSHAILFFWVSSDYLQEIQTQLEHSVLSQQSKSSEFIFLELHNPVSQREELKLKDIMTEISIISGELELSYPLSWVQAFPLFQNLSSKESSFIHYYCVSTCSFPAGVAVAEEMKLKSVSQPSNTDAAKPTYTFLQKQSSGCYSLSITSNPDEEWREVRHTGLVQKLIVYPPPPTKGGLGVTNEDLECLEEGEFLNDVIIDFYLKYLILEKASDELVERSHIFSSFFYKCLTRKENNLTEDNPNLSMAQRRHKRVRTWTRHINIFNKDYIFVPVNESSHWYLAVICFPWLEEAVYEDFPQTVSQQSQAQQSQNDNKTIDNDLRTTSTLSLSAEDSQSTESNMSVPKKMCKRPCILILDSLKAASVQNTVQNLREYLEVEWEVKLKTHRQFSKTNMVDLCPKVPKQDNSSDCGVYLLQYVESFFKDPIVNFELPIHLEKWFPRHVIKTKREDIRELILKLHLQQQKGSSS

[6] = molecular target: T3, Sentrin-specific protease 7; test: SENP7 protease inhibitors, SAR follow-up, biochemical, luminescence (AID 504497); format: functional
[7] = molecular target: T4, Sentrin-specific protease 8 (Homo sapiens, UniProt Q96LD8); test: SENP8 protease inhibitors, SAR follow-up, biochemical, luminescence, set 2 (AID 588601); format: functional
T4 sequence (Q96LD8 whole entry): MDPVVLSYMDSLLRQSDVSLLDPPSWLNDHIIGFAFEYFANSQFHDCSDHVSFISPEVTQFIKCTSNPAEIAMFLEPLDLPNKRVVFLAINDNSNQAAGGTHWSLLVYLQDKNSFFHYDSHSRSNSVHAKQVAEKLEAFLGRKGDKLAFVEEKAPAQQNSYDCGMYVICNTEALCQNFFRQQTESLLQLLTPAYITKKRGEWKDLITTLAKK

Caspase-3 [8] = molecular target: T1, Caspase-3; test: SAR Analysis of small molecule inhibitors of Sentrin-specific proteases (SENPs) using a Caspase-3 Selectivity assay. [Related pubchem assays (depositor defined):AID2540, AID2599, AID434973, AID489001]; format: functional
[9] = molecular target: T2, Sentrin-specific protease 6; test: SAR Analysis of small molecule inhibitors of Sentrin-specific protease 6 (SENP6) using a Luminescent assay. [Related pubchem assays (depositor defined):AID2582, AID2599]; format: functional
[10] = molecular target: T4, Sentrin-specific protease 8; test: SENP8 protease inhibitors, SAR follow-up, biochemical, luminescence (AID 504501); format: functional
Phospholipase D1 = Phospholipase D1 (Homo sapiens, UniProt Q13393); test: PLD1 inhibitor potency in cells, dose response (AID 602151); format: functional;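 further: cellular PLD1 assay in Calu-1 cells stimulated with PMA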
Phospholipase D2 = Phospholipase D2 (Homo sapiens, UniProt O14939); test: PLD2 inhibitor potency in cells, dose response (AID 602147); format: functional;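 further: cellular assay in HEK293 cells overexpressing GFP-tagged PLD2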
[11] = molecular target: T5, Alkaline phosphatase, tissue-nonspecific isozyme (Homo sapiens, UniProt P05186); test: TNAP enzyme activators, dose response, selectivity assay for mouse IAP activator project, biochemical, TNAP isozyme, mouse IAP uHTS hits (AID 488880); format: functional
T5 sequence (P05186 whole entry): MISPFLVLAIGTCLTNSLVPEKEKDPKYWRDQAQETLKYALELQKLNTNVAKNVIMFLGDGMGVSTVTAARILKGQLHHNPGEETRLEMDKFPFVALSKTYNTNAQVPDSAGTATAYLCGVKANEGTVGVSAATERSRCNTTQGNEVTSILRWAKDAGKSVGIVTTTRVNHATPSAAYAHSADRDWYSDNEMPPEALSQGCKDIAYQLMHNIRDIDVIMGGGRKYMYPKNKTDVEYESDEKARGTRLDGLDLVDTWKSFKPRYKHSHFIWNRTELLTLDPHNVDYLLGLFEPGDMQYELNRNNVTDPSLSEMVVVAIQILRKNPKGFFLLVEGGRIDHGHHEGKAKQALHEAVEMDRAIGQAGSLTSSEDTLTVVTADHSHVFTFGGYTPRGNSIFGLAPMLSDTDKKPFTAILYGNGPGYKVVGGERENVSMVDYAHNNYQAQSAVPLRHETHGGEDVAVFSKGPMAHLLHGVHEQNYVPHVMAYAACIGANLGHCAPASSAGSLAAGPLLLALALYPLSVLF

[12] = molecular target: Beta-adrenergic receptor kinase 1 (Homo sapiens, UniProt P25098); test: aptamer displacement from bead-bound GRK2 – biochemical, cherry pick 1, bead flow cytometry, dose response (AID 504500)
[13] = molecular target: Intestinal-type alkaline phosphatase (Mus musculus, UniProt P24822); test: mouse intestinal alkaline phosphatase activators, dose response, biochemical, luminescence, uHTS hits (AID 488783); format: functional
[14] = molecular target: Intestinal-type alkaline phosphatase (Homo sapiens, UniProt P09923); test: activation of human intestinal alkaline phosphatase – biochemical, dose response (AID 488873); format: functional
[15] = molecular target: T6, Dual specificity protein phosphatase 6 (Rattus norvegicus, UniProt Q64346); test: MKP-3 phosphatase inhibitors, primary screen, biochemical, rat enzyme, in vitro (AID 425)
T6 sequence (Q64346 whole entry): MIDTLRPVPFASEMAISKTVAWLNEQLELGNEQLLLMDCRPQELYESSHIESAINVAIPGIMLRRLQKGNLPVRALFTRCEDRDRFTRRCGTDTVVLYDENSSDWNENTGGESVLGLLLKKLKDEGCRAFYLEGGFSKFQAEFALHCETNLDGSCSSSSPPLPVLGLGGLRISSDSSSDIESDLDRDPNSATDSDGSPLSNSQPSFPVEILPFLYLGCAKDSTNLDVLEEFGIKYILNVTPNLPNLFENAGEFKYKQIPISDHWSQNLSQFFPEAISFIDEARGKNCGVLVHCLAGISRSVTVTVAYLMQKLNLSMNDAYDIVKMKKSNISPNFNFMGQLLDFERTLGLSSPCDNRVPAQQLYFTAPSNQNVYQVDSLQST

HEK293 [16] = test: cytotoxicity in HEK293T NF-kB-Luc cells, SAR follow-up, cytotoxicity control for NF-kB activator project, cell-based, resazurin fluorescence (AID 493251); format: functional; conditions: Homo sapiens
Jurkat = test: SAR Analysis of small molecule inhibitors of T-cell specific antigen receptor-induced NF-kB activation in a Jurkat cell line using a luminescence assay - Set 2. [Related pubchem assays (depositor defined):AID435003, AID435012, AID465]; format: functional, cell-based; conditions: Homo sapiens
HEK293 [17] = test: SAR Analysis of small molecule inhibitors of T-cell specific antigen receptor-induced NF-kB activation in a HEK-293T cell line using a luminescence assay - Set 2. [Related pubchem assays (depositor defined):AID435003, AID435012, AID489026]; format: functional, cell-based; conditions: Homo sapiens

Sequence of Intestinal-type alkaline phosphatase (Homo sapiens, UniProt P09923) (P09923 whole entry): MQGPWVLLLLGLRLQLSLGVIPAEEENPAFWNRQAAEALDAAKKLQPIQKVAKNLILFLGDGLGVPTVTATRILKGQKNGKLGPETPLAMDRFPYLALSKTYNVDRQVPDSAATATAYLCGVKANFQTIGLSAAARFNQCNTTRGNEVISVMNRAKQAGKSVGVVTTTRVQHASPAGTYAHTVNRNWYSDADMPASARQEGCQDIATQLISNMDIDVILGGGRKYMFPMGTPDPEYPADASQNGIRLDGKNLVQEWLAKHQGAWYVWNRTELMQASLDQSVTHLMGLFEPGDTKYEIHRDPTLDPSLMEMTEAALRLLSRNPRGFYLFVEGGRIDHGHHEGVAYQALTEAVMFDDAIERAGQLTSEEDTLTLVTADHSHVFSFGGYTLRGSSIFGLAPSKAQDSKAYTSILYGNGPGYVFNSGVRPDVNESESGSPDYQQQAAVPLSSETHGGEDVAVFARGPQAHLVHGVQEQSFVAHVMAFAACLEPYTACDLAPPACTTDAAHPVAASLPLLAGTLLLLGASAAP
Sequence of Intestinal-type alkaline phosphatase (Mus musculus, UniProt P24822) (P24822 whole entry): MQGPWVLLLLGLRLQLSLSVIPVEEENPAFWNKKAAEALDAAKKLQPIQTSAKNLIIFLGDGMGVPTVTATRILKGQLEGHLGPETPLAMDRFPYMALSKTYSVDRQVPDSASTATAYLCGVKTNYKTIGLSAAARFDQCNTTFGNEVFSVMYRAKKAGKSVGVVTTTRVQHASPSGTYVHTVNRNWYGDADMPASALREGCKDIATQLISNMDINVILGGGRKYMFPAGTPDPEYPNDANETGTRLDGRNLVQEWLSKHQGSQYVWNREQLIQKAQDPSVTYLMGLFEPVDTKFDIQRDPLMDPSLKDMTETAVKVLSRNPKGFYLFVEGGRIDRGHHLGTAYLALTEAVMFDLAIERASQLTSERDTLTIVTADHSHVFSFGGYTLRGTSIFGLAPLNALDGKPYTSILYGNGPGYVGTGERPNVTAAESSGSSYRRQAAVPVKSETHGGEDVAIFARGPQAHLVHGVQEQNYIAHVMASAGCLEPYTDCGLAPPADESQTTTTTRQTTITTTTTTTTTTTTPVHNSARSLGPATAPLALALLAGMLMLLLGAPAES
Sequence of Beta-adrenergic receptor kinase 1 (P25098 whole entry): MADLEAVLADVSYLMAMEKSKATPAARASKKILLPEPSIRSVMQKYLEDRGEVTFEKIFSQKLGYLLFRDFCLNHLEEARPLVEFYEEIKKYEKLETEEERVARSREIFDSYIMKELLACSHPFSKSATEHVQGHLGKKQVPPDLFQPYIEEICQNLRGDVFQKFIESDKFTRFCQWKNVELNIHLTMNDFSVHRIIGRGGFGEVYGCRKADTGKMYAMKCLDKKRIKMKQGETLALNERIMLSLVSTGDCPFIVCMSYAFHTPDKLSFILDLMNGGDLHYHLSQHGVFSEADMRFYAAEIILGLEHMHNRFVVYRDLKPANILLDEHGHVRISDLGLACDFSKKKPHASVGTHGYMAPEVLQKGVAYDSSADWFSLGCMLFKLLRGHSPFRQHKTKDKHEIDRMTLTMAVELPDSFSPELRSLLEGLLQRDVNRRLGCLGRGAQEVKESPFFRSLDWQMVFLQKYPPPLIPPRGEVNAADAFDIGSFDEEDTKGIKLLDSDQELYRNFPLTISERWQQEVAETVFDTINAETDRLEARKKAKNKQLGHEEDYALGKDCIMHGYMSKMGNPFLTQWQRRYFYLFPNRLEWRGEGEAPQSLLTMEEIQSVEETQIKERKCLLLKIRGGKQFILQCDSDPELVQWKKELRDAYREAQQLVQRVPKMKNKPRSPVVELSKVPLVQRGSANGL
Sequence of Voltage-gated inwardly rectifying potassium channel KCNH2 (Q12809 whole entry): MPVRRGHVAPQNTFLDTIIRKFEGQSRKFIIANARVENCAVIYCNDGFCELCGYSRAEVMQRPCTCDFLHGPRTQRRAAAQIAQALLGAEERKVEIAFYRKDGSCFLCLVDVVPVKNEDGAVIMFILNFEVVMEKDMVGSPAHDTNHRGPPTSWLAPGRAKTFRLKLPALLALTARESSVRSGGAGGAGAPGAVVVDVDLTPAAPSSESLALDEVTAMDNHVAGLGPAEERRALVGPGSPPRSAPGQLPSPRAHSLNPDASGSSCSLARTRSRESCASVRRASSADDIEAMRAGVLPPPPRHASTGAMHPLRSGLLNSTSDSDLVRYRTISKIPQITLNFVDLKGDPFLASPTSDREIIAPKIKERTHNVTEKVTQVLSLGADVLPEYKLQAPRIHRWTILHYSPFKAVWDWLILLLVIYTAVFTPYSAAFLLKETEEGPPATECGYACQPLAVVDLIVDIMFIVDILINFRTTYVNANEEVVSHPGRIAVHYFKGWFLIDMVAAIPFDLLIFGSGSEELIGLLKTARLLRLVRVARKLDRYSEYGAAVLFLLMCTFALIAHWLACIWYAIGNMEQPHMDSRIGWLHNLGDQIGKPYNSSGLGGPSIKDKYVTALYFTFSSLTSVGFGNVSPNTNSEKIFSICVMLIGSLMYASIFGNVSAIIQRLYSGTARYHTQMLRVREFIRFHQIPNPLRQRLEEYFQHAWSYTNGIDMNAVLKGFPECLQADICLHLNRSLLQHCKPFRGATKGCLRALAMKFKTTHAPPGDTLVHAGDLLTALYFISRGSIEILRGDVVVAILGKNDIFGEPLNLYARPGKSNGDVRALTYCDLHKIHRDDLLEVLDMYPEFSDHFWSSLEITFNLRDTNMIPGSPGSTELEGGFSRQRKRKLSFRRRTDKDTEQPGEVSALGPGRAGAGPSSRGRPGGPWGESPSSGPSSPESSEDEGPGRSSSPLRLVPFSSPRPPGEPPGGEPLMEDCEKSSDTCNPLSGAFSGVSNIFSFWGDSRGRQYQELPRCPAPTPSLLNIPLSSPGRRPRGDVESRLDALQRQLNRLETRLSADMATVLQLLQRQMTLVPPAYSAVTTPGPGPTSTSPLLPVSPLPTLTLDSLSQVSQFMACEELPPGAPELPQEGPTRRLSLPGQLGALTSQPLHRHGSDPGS
Sequence of Phospholipase D1 (Q13393 whole entry): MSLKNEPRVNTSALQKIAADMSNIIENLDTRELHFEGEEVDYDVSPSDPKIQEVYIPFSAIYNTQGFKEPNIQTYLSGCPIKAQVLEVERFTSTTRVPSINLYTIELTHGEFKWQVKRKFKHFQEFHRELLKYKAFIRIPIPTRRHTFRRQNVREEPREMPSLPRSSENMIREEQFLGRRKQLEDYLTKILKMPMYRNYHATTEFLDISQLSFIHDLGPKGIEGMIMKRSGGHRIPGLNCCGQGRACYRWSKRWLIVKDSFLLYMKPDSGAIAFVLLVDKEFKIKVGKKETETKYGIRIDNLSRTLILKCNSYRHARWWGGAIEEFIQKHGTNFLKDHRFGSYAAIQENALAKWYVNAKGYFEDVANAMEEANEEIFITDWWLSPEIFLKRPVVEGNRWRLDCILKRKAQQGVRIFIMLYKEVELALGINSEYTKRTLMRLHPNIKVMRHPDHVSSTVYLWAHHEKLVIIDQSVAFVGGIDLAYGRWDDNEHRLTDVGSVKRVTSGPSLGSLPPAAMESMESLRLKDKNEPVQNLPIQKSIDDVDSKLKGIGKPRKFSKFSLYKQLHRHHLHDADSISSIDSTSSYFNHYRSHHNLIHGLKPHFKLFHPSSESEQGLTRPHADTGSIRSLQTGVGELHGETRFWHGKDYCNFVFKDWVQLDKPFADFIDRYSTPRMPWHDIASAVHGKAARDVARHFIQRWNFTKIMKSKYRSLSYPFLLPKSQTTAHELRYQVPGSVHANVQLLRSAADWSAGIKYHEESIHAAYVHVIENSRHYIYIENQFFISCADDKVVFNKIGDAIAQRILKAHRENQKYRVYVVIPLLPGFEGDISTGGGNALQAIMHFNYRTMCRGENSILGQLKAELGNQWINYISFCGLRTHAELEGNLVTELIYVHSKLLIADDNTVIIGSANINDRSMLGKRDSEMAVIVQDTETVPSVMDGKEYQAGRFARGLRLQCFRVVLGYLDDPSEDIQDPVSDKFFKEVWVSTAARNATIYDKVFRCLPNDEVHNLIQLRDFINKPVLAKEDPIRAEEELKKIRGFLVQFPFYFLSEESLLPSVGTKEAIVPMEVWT
Sequence of Phospholipase D2 (O14939 whole entry): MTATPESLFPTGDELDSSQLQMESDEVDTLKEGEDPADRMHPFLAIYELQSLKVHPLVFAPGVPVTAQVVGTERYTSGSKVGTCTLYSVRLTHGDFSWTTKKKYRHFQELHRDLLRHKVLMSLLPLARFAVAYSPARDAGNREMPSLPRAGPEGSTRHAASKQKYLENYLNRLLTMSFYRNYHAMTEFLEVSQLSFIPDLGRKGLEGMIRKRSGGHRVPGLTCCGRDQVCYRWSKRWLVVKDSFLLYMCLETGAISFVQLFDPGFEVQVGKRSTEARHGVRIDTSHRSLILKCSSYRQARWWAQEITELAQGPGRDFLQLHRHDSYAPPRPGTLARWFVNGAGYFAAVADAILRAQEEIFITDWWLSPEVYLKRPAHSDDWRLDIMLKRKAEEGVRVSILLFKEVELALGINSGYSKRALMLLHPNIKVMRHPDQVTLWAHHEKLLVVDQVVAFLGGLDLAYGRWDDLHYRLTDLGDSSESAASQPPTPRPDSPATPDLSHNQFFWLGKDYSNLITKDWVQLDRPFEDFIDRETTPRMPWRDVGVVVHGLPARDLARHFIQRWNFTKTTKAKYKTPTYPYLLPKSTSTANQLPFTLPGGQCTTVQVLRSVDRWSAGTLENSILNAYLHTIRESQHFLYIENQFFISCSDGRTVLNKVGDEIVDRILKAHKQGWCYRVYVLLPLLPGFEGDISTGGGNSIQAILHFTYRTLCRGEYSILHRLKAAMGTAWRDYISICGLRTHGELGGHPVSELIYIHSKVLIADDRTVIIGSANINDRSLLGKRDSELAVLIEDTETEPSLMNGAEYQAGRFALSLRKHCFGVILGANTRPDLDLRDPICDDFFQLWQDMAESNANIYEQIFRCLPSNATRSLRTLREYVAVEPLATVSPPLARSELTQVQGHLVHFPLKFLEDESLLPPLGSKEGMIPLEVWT

CN(C)CCC(c1ccccc1)c1ccccn1 (configuration not stated)
AC50 [1]: 35.5 µM (inconclusive)

CCCc1cc2c(=O)c(-c3ccccn3)coc2cc1OC
EC50 (H4): > 120 µM (not active)
AC50 (HeLa): 73.5 µM (active)
EC50 [2]: 182 nM (active)

COc1cccc(-c2nc(/C=C/c3ccccc3)no2)c1
IC50 (Caspase-3 [3]): 33.5 µM (active)
IC50 [4]: 13.5 µM (active)
IC50 [5]: 12.2 µM (active)
IC50 [6]: 14 µM (active)
IC50 [7]: 12.2 µM (active)
IC50 (Caspase-3 [8]): 47 µM (active)
IC50 [9]: 45 µM (active)
IC50 [10]: 52 µM (active)

CN(CCN1CCC2(CC1)C(=O)NCN2c1ccccc1)C(=O)c1ccc2ccccc2c1
IC50 (Phospholipase D1): 20 µM (inactive)
IC50 (Phospholipase D2): 20 µM (active)

CCOC(=O)C(C)Sc1nc2c(c(=O)[nH]c(=O)n2C)n1C/C=C(/C)Cl (configuration not stated)
EC50 [11]: 66.9 µM (active)
EC50 [12]: 22.1 µM (inactive)
EC50 [13]: 69.8 µM (active)
EC50 [14]: 74.2 µM (active)
IC50 [15]: > 10 µM (not active)

Cc1ccc(C(NC(=O)C2CCCCC2)c2ccc3cccnc3c2O)cc1 (configuration not stated)
IC50 (HEK293 [16]): 21 µM (inactive)
IC50 (Jurkat): 2.62 µM (active)
IC50 (HEK293 [17]): 4.93 µM (active)
